Experimental data: patent publication US5677459A, “Methods for the preparation of modulators of acetylcholine receptors” (Sibia Neurosciences, Inc., priority 1995, dated 1997)
Counter-ions that a name gives are not always drawn. Like-named read-outs stand apart in the source and are kept apart here.

Tests used:
[1] = target: T1, nicotinic acetylcholine receptor (Rattus norvegicus, UniProt P09483+P12390); assay: ^3 H-Nicotine binding/displacement, rat cerebral membranes
T1 construct: the brains removed and the cerebral cortex dissected on ice; from tissue; host or cells: cerebral cortex synaptic membranes of male Sprague-Dawley rats
Description: ^3 H-Nicotine binding to rat cerebral membranes was performed according to modifications of the method of Flyn and Mash (J. Neurochem. 47:1948 (1986)). ^3 H-Nicotine (80 ci/mmol; New England Nuclear Corporation, Boston, Mass.) was used as the ligand for nicotinic acetylcholine receptor binding assays. All other reagents were purchased from the Sigma Chemical Co. (St. Louis, Mo.).
Male Sprague-Dawley rats (250-400 gm) were sacrificed by decapitation, the brains removed and the cerebral cortex dissected on ice. Synaptic membranes were prepared by homogenizing the cortical tissue in 20 volumes of ice-cold modified Tris buffer (50 mM Tris pH 7.4, 120 mM NaCl, 5 mM KCl, 2 mM EDTA, 1 mM PMSF) with a polytron (20 sec at setting 5-6) followed by centrifugation (15 min at 5,000×g) at 4° C. The resultant pellet was rehomogenized and centrifuged twice. The final pellet was resuspended in ice-cold assay buffer (50 mM Tris pH 7.4, 120 mM NaCl, 5 mM KCl, 2 mM CaCl2, 1 mM MgCl2) at a concentration of membrane equivalent to 1 gm wet weight cortex per 10 ml buffer. After protein determination the final membrane preparation was diluted with buffer to 3 mg protein/mi. This membrane preparation was used in either the fresh state or frozen (-70° C.) then thawed.
The binding assay is performed manually using 96-well plates, or using a Biomek automated work station (Beckman Instrument Co.). ^3 H-Nicotine was diluted in assay buffer to give a final concentration of 1.9 nM. The Biomek automated work station was programmed to automatically transfer 750 μl of assay buffer with ^3 H-nicotine, 230 μl of membrane preparation and 20 μl of solution containing the compound of interest in assay buffer, DMSO, ethanol:DMSO (1:1) or appropriate vehicle to the 96-well plate. Atropine was added to the incubation buffer at a final concentration of 3 μM to block binding to muscarinic acetylcholine receptor sites. The plates were maintained on ice for 60 min and the tissue-bound radioactivity was separated from the free by rapid filtration in a Brandel Harvester onto GF/C filters presoaked in 0.5% polyethyleneimine for at least 2 hr. The filters were washed with 4×2 ml of ice-cold assay buffer and filters were transferred to vials to which 4 ml of scintillation cocktail was added. The radioactivity was measured in a LS-6500 Beckman Liquid Scintillation Counter in an autodpm mode. Data were analyzed bylog-logit transformation or non-linear regression analysis (e.g., employing GraphPad Prism, available from GraphPad Software, San Diego, Calif.) to give IC50 values. Non-specific binding was defined by 10 μM cytisine.

[2] = target: muscarinic acetylcholine receptors; assay: ^3 H-QNB (quinuclidinyl benzilate) binding/displacement, rat cerebral membranes
[3] = test system: ^3 H-Norepinephrine release, rat hippocampus slices; assay: Ligand-stimulated ^3 H-norepinephrine release from rat hippocampus slices; type: cell-based; settings: for Emax at 300 µM: Rattus norvegicus, nicotine 300 μM = 100, read-out: % of Nicotine Response, ^3 H-Norepinephrine, Hippocampus; for % of Nicotine Response, ^3 H-Norepinephrine, Hippocampus: 300 μM, nicotine 300 μM = 100
Description: (§1) Measurement of ^3 H-dopamine release from rat striatal slices was performed according to the method of Sacaan et al. (J. Neurochem. 59:245 (1992)). Male Sprague-Dawley rats (250-300 g) were decapitated and the striata or olfactory tubercles dissected quickly on a cold glass surface. The tissue was chopped to a thickness of 300 μm with a McIlwain tissue chopper. After chopping again at right angles the tissue was dispersed and incubated for 10 min. at 37° C. in oxygenated Kreb's buffer. ^3 H-Dopamine (40 Ci/mmol, NEN- Dupont, Boston, Mass.) was added (50 nM) and the tissue was incubated for 30 min. in Kreb's buffer containing 10 μM pargyline and 0.5 mM ascorbic acid. Aliquots of the minced tissue were then transferred to chambers of a Brandel Superfusion system in which the tissue was supported on Whatman GF/B filter discs. The tissue was then superfused with buffer at a constant flow rate of 0.3 ml/min by means of a Brandel peristaltic pump. The perfusate was collected in plastic scintillation vials in 3-min fractions, and the radioactivity was estimated by scintillation spectrophotometry. The superfusate for the first 120 min was discarded. After two baseline fractions had been collected, the superfusion buffer was switched to fresh buffer with or without compound of interest. At the end of the experiment the filter and the tissue were removed, and the radiolabeled neurotransmitter content was estimated after extraction into scintillation fluid. The fractional efflux of radiolabeled neurotransmitter was estimated as the amount of radioactivity in the perfusate fraction relative to the total amount in the tissue.
Following essentially the same procedure as set forth above, the amount of ^3 H-norepinephrine released from rat hippocampus, thalamus and prefrontal cortex slices superfused with buffer containing (or lacking) compounds of interest was also measured.
(§2) Results of studies of the effects of an invention compound (as compared to the effect of nicotine) on the release of neurotransmitters from rat brain slices are presented in Table II. Results presented in Part A of the Table are expressed as the percent fractional release and results presented in Part B of the Table are expressed as a percentage, relative to nicotine response.

[4] = test system: ^3 H-Dopamine release, rat striatal slices; assay: Ligand-stimulated ^3 H-dopamine release from rat striatal slices; type: cell-based; settings: Rattus norvegicus, read-out: % of Nicotine Response, ^3 H-Dopamine, Striatum
Description: as §1, §2

rats = assay: Locomotor activity assay; type: in vivo, rat (male Sprague-Dawley); settings: Rattus norvegicus, sc, 20 mg/kg, s.c.
Description: This assay can be used to assess the primary effect of a compound on general motor activity. A decrease in locomotor activity is indicative of a possible sedative effect on the animal, whereas an increase in locomotor activity is indicative of a stimulant effect on the animal.
Locomotor activity of rats (male Sprague-Dawley (Harlan) weighing 200-250 gm) was measured for 2 hrs in photocell cages immediately after administration of the invention compound. Prior to the test day, the animals were placed in the activity cages for 3 hrs to familiarize them with the experimental environment. On the test day, the animals were placed in the photocell cages and then injected with compound 1.5 hrs later.
The photocell cages were standard rodent cages (30 cm×20 cm×40 cm) with four infrared beams crossing the long axis. The animals were under no motivational constraints and were free to move around. Movements from one infrared beam to another (ambulation) were called "crossover"; successive interruptions of the same beam (vertical and other movements such as grooming) were called "general activity."

[5] = ^3 H-nicotine 1.9 nM, rat cerebral membranes, read-out: IC50, Nicotine
[6] = ^3 H-QNB 60 pM, rat cerebral membranes
[7] = compounds at 300 μM, nicotine 10 μM = 100

T1 sequence (P09483 31-630): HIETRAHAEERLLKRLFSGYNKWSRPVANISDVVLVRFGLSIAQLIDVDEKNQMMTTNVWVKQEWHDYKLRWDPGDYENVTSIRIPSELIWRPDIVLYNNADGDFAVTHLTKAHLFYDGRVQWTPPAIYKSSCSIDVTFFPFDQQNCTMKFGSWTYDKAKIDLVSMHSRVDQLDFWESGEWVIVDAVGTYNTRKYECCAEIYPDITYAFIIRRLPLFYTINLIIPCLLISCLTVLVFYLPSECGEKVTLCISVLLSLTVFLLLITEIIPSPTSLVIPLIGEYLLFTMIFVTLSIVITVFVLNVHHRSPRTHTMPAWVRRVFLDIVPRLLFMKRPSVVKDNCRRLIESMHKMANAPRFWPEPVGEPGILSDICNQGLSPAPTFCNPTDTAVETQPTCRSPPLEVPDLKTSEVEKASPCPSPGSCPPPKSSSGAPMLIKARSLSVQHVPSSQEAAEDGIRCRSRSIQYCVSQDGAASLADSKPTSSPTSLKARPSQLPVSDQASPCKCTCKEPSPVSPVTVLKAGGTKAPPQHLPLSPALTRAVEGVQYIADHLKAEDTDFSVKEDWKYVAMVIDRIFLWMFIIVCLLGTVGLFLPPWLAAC
T1 sequence (P12390 25-500): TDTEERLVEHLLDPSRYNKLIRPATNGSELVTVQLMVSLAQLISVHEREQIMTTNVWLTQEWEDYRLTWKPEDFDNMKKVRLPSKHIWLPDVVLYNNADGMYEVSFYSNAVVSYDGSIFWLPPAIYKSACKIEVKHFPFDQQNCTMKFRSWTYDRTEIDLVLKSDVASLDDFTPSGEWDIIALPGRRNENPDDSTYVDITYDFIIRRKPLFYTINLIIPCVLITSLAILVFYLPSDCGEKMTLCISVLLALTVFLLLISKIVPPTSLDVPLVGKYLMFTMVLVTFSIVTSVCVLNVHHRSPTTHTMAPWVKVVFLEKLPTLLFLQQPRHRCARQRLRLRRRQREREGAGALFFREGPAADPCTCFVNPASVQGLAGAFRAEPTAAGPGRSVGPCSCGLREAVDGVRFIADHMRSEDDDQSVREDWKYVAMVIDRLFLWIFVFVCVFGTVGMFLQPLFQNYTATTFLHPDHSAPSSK

Row | Compound | IC50 [1, 5] | IC50 [2, 6] | Emax at 300 µM [3] | Emax at 300 µM [4, 7] | further results
1 | CN1CCCC1c1cncc(C#CC(C)(C)O)c1 (stereo not drawn) | 38 nM | > 100000 nM | 18.3% | 118% | 
2 | C#Cc1cncc(C2CCCN2C)c1 (single isomer, unassigned) [5-Ethynyl-3-(1-methyl-2-pyrrolidinyl)pyridine di-p-toluoyl-L-tartrate] |  |  |  |  | IC50 ([1]; IC50, Nicotine): 2.6 nM; Emax at 300 µM ([4]; compound at 300 μM, Nicotine concentration was 300 μM): 155%
3 | C#Cc1cncc(C2CCCN2C)c1 (single isomer, unassigned) [5-ethynyl-3-(1-methyl-2-pyrrolidinyl)pyridine di-p-toluoyl-D-tartrate] |  |  |  | 33% | IC50 ([1]; IC50, Nicotine): 78 nM
4 | C#Cc1cncc(C2CCCN2C)c1 (single isomer, unassigned) [R^5 = 5-(1-ethynyl) Di-p-toluoyl-D-tartrate] [5-ethynyl-3-(1-methyl-2-pyrrolidinyl)pyridine di-p-toluoyl-D-tartrate] |  | 4700 nM |  |  | % of Nicotine Response, ^3 H-Norepinephrine, Hippocampus [3]: 3.7%
5 | C#Cc1cncc(C2CCCN2C)c1 (single isomer, unassigned) [R^5 = 5-(1-ethynyl) Di-p-toluoyl-L-tartrate] [5-Ethynyl-3-(1-methyl-2-pyrrolidinyl)pyridine di-p-toluoyl-L-tartrate] |  |  |  |  | % of Nicotine Response, ^3 H-Norepinephrine, Hippocampus [3]: 17.4%
6 | Fc1ccc(-c2cncc(C3CCCCN3)c2)cc1 (stereo not drawn) [5-(4-Fluorophenyl)-3-(2-piperidinyl)pyridine fumarate] | 490 nM | 24900 nM |  |  | 
7 | C#Cc1cncc(C2CCC(=O)N2C)c1 (stereo not drawn) [A = C(O); R^7 = CH3; R^5 = 5-(1-ethynyl), 5-Ethynyl-3-(1-methyl-5-pyrrolidin-2-onyl)pyridine] | > 100000 nM | > 100000 nM |  |  | 
8 | CN(C)CC#Cc1cncc(C2CCCN2C)c1 (stereo not drawn) [R^5 = 5-(1-dimethylamino-2-propynyl), 5-[3-(1-Dimethylamino-2-propynyl)]-3-(1-methyl-2-pyrrolidinyl)pyridine fumarate] | 25 nM | 100000 nM |  | 235% | 
9 | CN1CCCC1c1cncc(C#CCO)c1 (stereo not drawn) [R^5 = 5-(1-hydroxy-2-propynyl)] | 3.6 nM | > 100000 nM | 39% | 157% | 
10 | CN1CCCC1c1cncc(C#CCCO)c1 (stereo not drawn) [R^5 = 5-(1-hydroxy-3-butynyl)] | 6 nM | > 100000 nM | 36.3% | 100% | 
11 | COCC#Cc1cncc(C2CCCN2C)c1 (stereo not drawn) [R^5 = 5-(1-methoxy-2-propynyl), 5-[3-(1-Methoxy-2-propynyl)]-3-(1-methyl-2-pyrrolidinyl)pyridine fumarate] | 2.6 nM | > 100000 nM | 7.4% | 61.7% | 
12 | CCCC#Cc1cncc(C2CCCN2C)c1 (stereo not drawn) [R^5 = 5-(1-pentynyl), 5-[1-(1-Pentynyl)]-3-(1-methyl-2-pyrrolidinyl)pyridine fumarate] | 4.2 nM | 39000 nM |  | 27.7% | 
13 | CC#Cc1cncc(C2CCCN2C)c1 (stereo not drawn) [R^5 = 5-(1-propynyl), 5-[1-(1-Propynyl)]-3-(1-methyl-2-pyrrolidinyl)pyridine fumarate] | 29 nM | > 100000 nM |  |  | 
14 | CC(O)C#Cc1cncc(C2CCCN2C)c1 (stereo not drawn) [R^5 = 5-(2-hydroxy-3-butynyl), 5-[4-(2-Hydroxy-3-butynyl)]-3-(1-methyl-2-pyrrolidinyl)pyridine fumarate] | 11 nM | > 100000 nM | 30.5% | 98% | 
15 | CN1CCCC1c1cncc(C#CCCCCCCC#Cc2cncc(C3CCCN3C)c2)c1 (stereo not drawn) [R^5 = See below*, 1,10-Bis-5-[3-(1-methyl-2-pyrrolidinyl)pyridine]-deca-1,9-diyne fumarate] |  |  |  |  | IC50 ([1]; IC50, Nicotine, ^3 H-nicotine 1.9 nM, rat cerebral membranes): 5.2 nM; IC50 [2]: 7500 nM
16 | CN1CCCC1c1cncc(C#Cc2ccccc2)c1 (stereo not drawn) [R^5 = phenylethynyl, 5-Phenylethynyl-3-(1-methyl-2-pyrrolidinyl)pyridine fumarate] |  |  |  |  | change in vivo at 20 mg/kg (rats; 1 h, 0-60 min, read-out: Ambulation (cross overs), percent of change from control): 7%; change in vivo at 20 mg/kg (rats; 1 h, 0-60 min, read-out: General Activity (beam breaks), percent of change from control): 3%; change in vivo at 20 mg/kg (rats; 2 h, 60-120 min, read-out: Ambulation (cross overs), percent of change from control): -16%; change in vivo at 20 mg/kg (rats; 2 h, 60-120 min, read-out: General Activity (beam breaks), percent of change from control): -11%
